Assay results as given in patent publication US20240116985A1, “STAPLED PEPTIDES AND METHODS THEREOF” (priority 2020, published 2024).
Converted amounts (≈) assume the structure as drawn. Like-named read-outs stand apart in the source and are kept apart here.

What was measured:
CHI Log D procedure = type: physicochemical
[1] = target: T1, beta-catenin/TCF4 engagement (Homo sapiens, UniProt P35222); test: Nano-BRET target engagement assay (B-cat-Halo & TCF4-Luc in HEK293 cells); type: cell-based; conditions: for inhibition at 10 µM: read-out: NanoBRET % inh @ 10 uM; for IC50: absolute IC50
T1 construct: expressed in transfected cells; host or cells: HEK293
T1 sequence (P35222 1-781): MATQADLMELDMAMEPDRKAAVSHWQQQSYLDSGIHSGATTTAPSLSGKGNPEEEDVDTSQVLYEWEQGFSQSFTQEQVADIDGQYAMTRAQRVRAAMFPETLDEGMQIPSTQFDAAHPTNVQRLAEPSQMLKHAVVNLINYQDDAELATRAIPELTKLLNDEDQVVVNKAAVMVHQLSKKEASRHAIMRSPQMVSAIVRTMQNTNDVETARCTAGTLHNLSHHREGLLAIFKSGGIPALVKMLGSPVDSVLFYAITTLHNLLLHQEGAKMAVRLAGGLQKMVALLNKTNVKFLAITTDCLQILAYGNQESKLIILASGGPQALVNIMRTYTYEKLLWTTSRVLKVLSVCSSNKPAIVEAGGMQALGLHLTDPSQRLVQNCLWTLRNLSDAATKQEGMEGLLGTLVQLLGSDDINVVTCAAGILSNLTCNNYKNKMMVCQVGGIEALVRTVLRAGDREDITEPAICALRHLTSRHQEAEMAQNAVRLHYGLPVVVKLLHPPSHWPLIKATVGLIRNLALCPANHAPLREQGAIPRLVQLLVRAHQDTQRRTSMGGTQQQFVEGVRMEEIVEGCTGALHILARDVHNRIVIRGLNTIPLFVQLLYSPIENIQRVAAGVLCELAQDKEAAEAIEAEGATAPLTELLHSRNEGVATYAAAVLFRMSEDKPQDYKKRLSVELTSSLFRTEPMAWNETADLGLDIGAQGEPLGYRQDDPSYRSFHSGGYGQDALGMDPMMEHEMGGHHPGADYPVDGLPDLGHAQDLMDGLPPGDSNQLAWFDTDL

Solubility in PBS = type: physicochemical
Summary of the method: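 Solubility is derived from HPLC peak areas: the ratio of the PBS supernatant peak to a 50 μM DMSO peptide peak, times 50 uM.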

[2] = target: T2, full-length beta-Catenin (Uniprot ID P35222) (Homo sapiens, UniProt P35222); test: Fluorescence polarization IC50 (beta-catenin / 5FAM-TCF4 10-53 competition); type: binding
T2 construct: 10 nM full-length beta-Catenin (Uniprot ID P35222)
T2 sequence (P35222 1-781): T1 sequence (P35222 1-781)

[3] = fluorescence polarization, read-out: beta-Catenin FP IC50

| SMILES | Solubility (Solubility in PBS) [µM] | chromatographic logD (CHI Log D procedure; pH 7.4, CHI Log D) | IC50 [2, 3] [nM] | IC50 ([1]; read-out: NanoBRET Abs IC50) [µM] | Solubility (Solubility in PBS; Solubility (uM)) [µM] | further results |
| --- | --- | --- | --- | --- | --- | --- |
| CC(=O)N1CCC[C@]12CC=CCCCC1(CCCC=CCCCCCC[C@@](C)(C(=O)N[C@@H](Cc3ccccc3)C(=O)N[C@@H](C)C(=O)N[C@@H](CCC(N)=O)C(N)=O)NC(=O)[C@H](C(C)C)NC(=O)[C@H](Cc3ccccc3)NC(=O)[C@H](C)NC(=O)[C@H](C)NC(=O)[C@H](CC(=O)O)NC(=O)[C@H](CC(=O)O)NC1=O)NC(=O)[C@H](C)NC(=O)[C@H](CC(=O)O)NC2=O (stereo partly drawn) [I-357, Ac-PL3-Asp-Ala-B5-Asp-Asp-Ala-Ala-Phe-Val-S8-Phe-Ala-Gln-NH2] | 46 (≈ 76.6 µg/mL) |  |  |  |  | CHI Log D (CHI Log D procedure; pH 7.4): 1.852; inhibition at 10 µM ([1]; HEK293, 10 uM): -5.3% |
| CC[C@H](C)[C@@H]1NC(=O)[C@H](CC(=O)O)NC(=O)[C@]2(CC=CCCCC3(CCCC=CCCCCCC[C@@](C)(C(=O)N[C@@H](Cc4ccccc4)C(=O)N[C@@H](Cc4csc5ccccc45)C(=O)N[C@@H](CCC(N)=O)C(N)=O)NC(=O)[C@H](CCC(N)=O)NC(=O)[C@H](Cc4ccccc4)NC(=O)[C@H](C)NC(=O)[C@H](C)NC(=O)[C@H](CCC(=O)O)NC(=O)[C@H](CC(=O)O)NC3=O)NC1=O)CCCN2C(C)=O (stereo partly drawn) [I-407, Ac-PL3-Asp-Ile-B5-Asp-Glu-Ala-Ala-Phe-Gln-S8-Phe-BztA-Gln-NH2] | 50 (≈ 94.2 µg/mL) | 2.39 | 30 |  |  | inhibition at 10 µM ([1]; HEK293, @ 10 uM): 55.1% |
| COc1ccccc1C[C@H](NC(=O)[C@]1(C)CCCCCCC=CCCCC2(CCCC=CC[C@]3(CCCN3C(C)=O)C(=O)N[C@@H](CC(=O)O)C(=O)N[C@@H](C)C(=O)N2)C(=O)N[C@@H](CC(=O)O)C(=O)N[C@@H](CCC(=O)O)C(=O)N[C@@H](C)C(=O)N[C@@H](C)C(=O)N[C@@H](Cc2ccccc2)C(=O)N[C@@H](CC(N)=O)C(=O)N1)C(=O)N[C@@H](Cc1csc2ccccc12)C(=O)N[C@@H](CCC(N)=O)C(N)=O (stereo partly drawn) [I-437, Ac-PL3-Asp-Ala-B5-Asp-Glu-Ala-Ala-Phe-Asn-S8-2OMeF-BztA-Gln-NH2] |  | 2 | 26 | 17.5 | 44 (≈ 81.7 µg/mL) |  |
| CC(=O)N1CCC[C@]12CC=CCCCC1(CCCC=CCCCOC(=O)N3CC[C@@](C(=O)N[C@@H](Cc4ccccc4)C(=O)N[C@@H](Cc4csc5ccccc45)C(=O)N[C@@H](CCC(N)=O)C(N)=O)(C3)NC(=O)[C@H](CC(N)=O)NC(=O)[C@H](Cc3ccccc3)NC(=O)[C@H](C)NC(=O)[C@H](C)NC(=O)[C@H](CCC(=O)O)NC(=O)[C@H](CC(=O)O)NC1=O)NC(=O)[C@H](C)NC(=O)[C@H](CC(=O)O)NC2=O (stereo partly drawn) [I-462, Ac-PL3-Asp-Ala-B5-Asp-Glu-Ala-Ala-Phe-Asn-PyrS2-Phe-BztA-Gln-NH2] |  | 1.76 | 28 | > 20 | 49 (≈ 91.6 µg/mL) |  |
| CC[C@H](C)[C@@H]1NC(=O)[C@H](CC(=O)O)NC(=O)[C@]2(CC=CCCCC3(CCCC=CCCCCCC[C@@](C)(C(=O)N[C@@H](Cc4ccccc4)C(=O)N[C@@H](Cc4csc5ccccc45)C(=O)N[C@@H](CCC(N)=O)C(N)=O)NC(=O)[C@H](CCC(N)=O)NC(=O)[C@H](Cc4cccs4)NC(=O)[C@H](C)NC(=O)[C@H](C)NC(=O)[C@H](CCC(=O)O)NC(=O)[C@H](CC(=O)O)NC3=O)NC1=O)CCCN2C(C)=O (stereo partly drawn) [I-485, Ac-PL3-Asp-Ile-B5-Asp-Glu-Ala-Ala-2Thi-Gln-S8-Phe-BztA-Gln-NH2] | 50 (≈ 94.5 µg/mL) | 2.3 | 34 | 11.3 |  |  |
| CC(=O)N1CCC[C@]12CC=CCCCC1(CCCC=CCCCCCC[C@@](C)(C(=O)N[C@@H](Cc3ccccc3)C(=O)N[C@@H](Cc3csc4ccccc34)C(=O)N[C@@H](Cc3c[nH]cn3)C(N)=O)NC(=O)[C@H](CCC(N)=O)NC(=O)[C@H](Cc3ccccc3)NC(=O)[C@H](C)NC(=O)[C@H](C)NC(=O)[C@H](CCC(=O)O)NC(=O)[C@H](CC(=O)O)NC1=O)NC(=O)[C@H](CC(C)C)NC(=O)[C@H](CC(=O)O)NC2=O (stereo partly drawn) [I-506, Ac-PL3-Asp-Leu-B5-Asp-Glu-Ala-Ala-Phe-Gln-S8-Phe-BztA-His-NH2] | 10 (≈ 18.9 µg/mL) | 2.41 | 25 | 8.9 |  |  |
| CC[C@H](C)[C@@H]1NC(=O)[C@H](CC(=O)O)NC(=O)[C@]2(CC=CCCCC3(CCCC=CCCCCCC[C@@](C)(C(=O)N[C@@H](Cc4ccccc4OC)C(=O)N[C@@H](Cc4csc5ccccc45)C(=O)N[C@@H](Cc4c[nH]cn4)C(N)=O)NC(=O)[C@H](CC(N)=O)NC(=O)[C@H](Cc4ccccc4)NC(=O)[C@H](C)NC(=O)[C@H](C)NC(=O)[C@H](CCC(=O)O)NC(=O)[C@H](CC(=O)O)NC3=O)NC1=O)CCCN2C(C)=O (stereo partly drawn) [I-512, Ac-PL3-Asp-Ile-B5-Asp-Glu-Ala-Ala-Phe-Asn-S8-2OMeF-BztA-His-NH2] |  | 2.44 | 20 | 12.3 | 17 (≈ 32.4 µg/mL) |  |
| CC[C@H](C)[C@@H]1NC(=O)[C@H](CC(=O)O)NC(=O)[C@]2(CC=CCCCC3(CCCC=CCCCCCC[C@@](C)(C(=O)N[C@@H](Cc4ccccc4C(N)=O)C(=O)N[C@@H](Cc4csc5ccccc45)C(=O)N[C@@H](Cc4c[nH]cn4)C(N)=O)NC(=O)[C@H](CC(N)=O)NC(=O)[C@H](Cc4ccccc4)NC(=O)[C@H](C)NC(=O)[C@H](C)NC(=O)[C@H](CCC(=O)O)NC(=O)[C@H](CC(=O)O)NC3=O)NC1=O)CCCN2C(C)=O (stereo partly drawn) [I-514, Ac-PL3-Asp-Ile-B5-Asp-Glu-Ala-Ala-Phe-Asn-S8-2CBMF-BztA-His-NH2] | 50 (≈ 96.1 µg/mL) | 1.91 | 30 | > 20 |  |  |
| CC[C@H](C)[C@@H]1NC(=O)[C@H](CC(=O)O)NC(=O)[C@]2(CC=CCCCC3(CCCC=CCCCCCC[C@@](C)(C(=O)N[C@@H](Cc4ccsc4)C(=O)N[C@@H](Cc4csc5ccccc45)C(=O)N[C@@H](Cc4c[nH]cn4)C(N)=O)NC(=O)[C@H](CC(N)=O)NC(=O)[C@H](Cc4ccccc4)NC(=O)[C@H](C)NC(=O)[C@H](C)NC(=O)[C@H](CCC(=O)O)NC(=O)[C@H](CC(=O)O)NC3=O)NC1=O)CCCN2C(C)=O (stereo partly drawn) [I-517, Ac-PL3-Asp-Ile-B5-Asp-Glu-Ala-Ala-Phe-Asn-S8-3Thi-BztA-His-NH2] |  | 2.42 | 15 | 9.7 | 15 (≈ 28.3 µg/mL) |  |
| CC(=O)N1CCC[C@]12CC=CCCCC1(CCCC=CCCCCCC[C@@](C)(C(=O)N[C@@H](Cc3ccsc3)C(=O)N[C@@H](Cc3csc4ccccc34)C(=O)N[C@@H](CCC(N)=O)C(N)=O)NC(=O)[C@H](CC(N)=O)NC(=O)[C@H](Cc3ccccc3)NC(=O)[C@H](C)NC(=O)[C@H](C)NC(=O)[C@H](CCC(=O)O)NC(=O)[C@H](CC(=O)O)NC1=O)NC(=O)[C@H](C)NC(=O)[C@H](CC(=O)O)NC2=O (stereo partly drawn) [I-519, Ac-PL3-Asp-Ala-B5-Asp-Glu-Ala-Ala-Phe-Asn-S8-3Thi-BztA-Gln-NH2] | 50 (≈ 91.7 µg/mL) |  | 33 | 28.8 |  | CHI Log D (CHI Log D procedure; pH 7.4): 2.004; IC50 ([2]; read-out: FP EC50): 33 nM |
| C[C@@H]1NC(=O)[C@H](C)NC(=O)[C@H](CN(CC(=O)O)CC(F)(F)F)NC(=O)[C@H](CC(=O)O)NC(=O)C2(CCCC=CCCCOC(=O)N3CC[C@@](C(=O)N[C@@H](Cc4ccsc4)C(=O)N[C@@H](Cc4csc5ccccc45)C(=O)N[C@@H](CCC(N)=O)C(N)=O)(C3)NC(=O)[C@H](CC(N)=O)NC(=O)[C@H](Cc3ccccc3)NC1=O)CCCC=CC[C@]1(CCCN1C(=O)CN=[N+]=[N-])C(=O)N[C@@H](CC(=O)O)C(=O)N[C@@H](CC(C)(C)C)C(=O)N2 (stereo partly drawn) [I-1054, AzAc-PL3-Asp-Npg-B5-Asp-TfeGA-Ala-Ala-Phe-Asn-PyrS2-3Thi-BztA-Gln-NH2] | 46 (≈ 95.2 µg/mL) |  |  |  |  | chromatographic logD (CHI Log D procedure; pH 7.4): 2.19; IC50 ([1]; NanoBRET Abs IC50 (uM)): > 20 µM |
| CC(=O)N1CCC[C@]12CC=CCCCC1(CCCC=CCCCCCC[C@@](C)(C(=O)N[C@@H](Cc3ccsc3)C(=O)N[C@@H](Cc3csc4ccccc34)C(=O)N[C@@H](CCC(N)=O)C(N)=O)NC(=O)[C@H](CC(N)=O)NC(=O)[C@H](Cc3ccccc3)NC(=O)[C@H](C)NC(=O)[C@H](C)NC(=O)[C@H](CC(=O)O)NC(=O)[C@H](CC(=O)O)NC1=O)NC(=O)[C@H](CC(C)(C)C)NC(=O)C[C@H](CC(=O)O)NC2=O (stereo partly drawn) [I-1164, Ac-PL3-RbGlu-Npg-B5-Asp-Asp-Ala-Ala-Phe-Asn-S8-3Thi-BztA-Gln-NH2] | 50 (≈ 94.5 µg/mL) |  | 162 |  |  | CHI Log D (CHI Log D procedure; pH 7.4): 2.13; IC50 ([2]; fluorescence polarization, beta-catenin, read-out: FP EC50): 162 nM |
